The source of these data is ChEMBL document CHEMBL3045535, “Evaluation of lufenuron as a chemosterilant against fruit flies of the genus Anastrepha (Diptera: Tephritidae)” (2010).

In assay [1] the test system is Anastrepha ludens. In words: Reduction of fertility in 7 days old adult of Anastrepha ludens assessed as reduction of egg hatching at 1 mg/g treated with diet measured after 5 days oviposition. Format: functional. Also on record: scale not given: the % may be the effect or the level left.
Assay [2] has as its system Anastrepha ludens. The assay can be described thus: Reduction of fertility in 7 days old adult of Anastrepha ludens assessed as reduction of egg hatching at 30 mg/g treated with diet measured after 7 days oviposition. Format: functional. Further details: scale not given: the % may be the effect or the level left.

Take `O=C(NC(=O)c1c(F)cccc1F)Nc1cc(Cl)c(OC(F)(F)C(F)C(F)(F)F)cc1Cl` (racemic) [LUFENURON]: the Activity in assay [1] is recorded as 8%; in assay [2], 4%.
